{"source": "patent US12495798B2", "about": "“Nicotinamide compound and herbicidal composition comprising compound” (KOREA RESEARCH INSTITUTE OF CHEMICAL TECHNOLOGY, priority 2019, dated 2025)", "key": {"black nightshade [1]": {"tested_on": "black nightshade", "assay": "Herbicidal activity test against upland field weeds (foliar treatment test)", "assay_type": "in vivo", "parameters": "key to Foliar treatment herbicidal activity, black nightshade: 0 (no control); 100 (complete control)", "settings": "50 g ai/ha, scale 0-100; for pest or weed control at 50 g/ha: Solanum nigrum", "in_short": "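Greenhouse-grown plants (30±5 °C, 14/10 h light/dark) foliar hand-sprayed with compound in 50% acetone, 0.1% Tween-20 at 50 or 75 g a.i./ha. Control visually scored 0 (none) to 100 (complete) versus untreated after 14 days, or 21 days if needed.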"}, "black nightshade [2]": {"tested_on": "black nightshade", "assay": "Herbicidal activity test against upland field weeds (soil treatment test)", "assay_type": "in vivo", "parameters": "key to Soil treatment herbicidal activity, black nightshade: 0 (no control); 100 (complete control)", "settings": "50 g ai/ha, scale 0 (no control) to 100 (complete control); for pest or weed control at 50 g/ha: Solanum nigrum", "in_short": "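Pre-emergence soil surface spray, day after sowing, into sandy loam pots with fertilizer; compounds at 50 or 75 g a.i./ha in 50% acetone, 0.1% Tween-20. Greenhouse at 30±5 °C, 14/10 h light/dark; visual control rated 0–100 against untreated after 14 days (21 if needed).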"}}}
{"smiles": "Cn1nnc(COCc2nc(C(F)(F)F)ccc2C(=S)Nc2nnnn2C)n1", "note": "[Compound No. 2-106, N-(1-methyl-1H-tetrazol-5-yl)-2-(((2-methyl-2H-tetrazol-5-yl)methoxy)methyl)-6-(trifluoromethyl)pyridin-3-carbothioamide]", "values": [{"measurement": "pest or weed control at 50 g/ha", "setting": "black nightshade [1]", "value": 95, "unit": "%"}]}
{"smiles": "Cn1nnnc1COCc1nc(C(F)(F)F)ccc1C(=O)Nc1nnnn1C", "note": "[Compound No. 1-61, N-(1-methyl-1H-tetrazol-5-yl)-2-(((1-methyl-1H-tetrazol-5-yl)methoxy)methyl)-6-(trifluoromethyl)nicotinamide]", "values": [{"measurement": "Foliar treatment herbicidal activity, black nightshade", "setting": "black nightshade [1]", "value": 100}, {"measurement": "pest or weed control at 50 g/ha", "setting": "black nightshade [2]", "value": 98, "unit": "%"}]}
{"smiles": "Cn1nnnc1COc1nc(C(F)(F)F)ccc1C(=O)Nc1nnnn1C", "note": "[Compound No. 1-1, N-(1-methyl-1H-tetrazol-5-yl)-2-((1-methyl-1H-tetrazol-5-yl)methoxy)-6-(trifluoromethyl)nicotinamide]", "values": [{"measurement": "Foliar treatment herbicidal activity, black nightshade", "setting": "black nightshade [1]", "value": 100}, {"measurement": "Soil treatment herbicidal activity, black nightshade", "setting": "black nightshade [2]", "value": 100}]}
{"smiles": "CON(Cc1nnn(C)n1)Cc1nc(C(F)(F)F)ccc1C(=O)Nc1nnnn1C", "note": "[Compound No. 2-97, 2-((methoxy((2-methyl-2H-tetrazol-5-yl)methyl)amino)methyl)-N-(1-methyl-1H-tetrazol-5-yl)-6-(trifluoromethyl)nicotinamide]", "values": [{"measurement": "Foliar treatment herbicidal activity, black nightshade", "setting": "black nightshade [1]", "value": 100}]}
{"smiles": "Cn1nnc(COCc2nc(C(F)(F)F)ccc2C(=O)N(C(=O)c2ccccc2)c2nnnn2C)n1", "note": "[Compound No. 2-68, N-benzoyl-N-(1-methyl-1H-tetrazol-5-yl)-2-(((2-methyl-2H-tetrazol-5-yl)methoxy)methyl)-6-(trifluoromethyl)nicotinamide]", "values": [{"measurement": "Foliar treatment herbicidal activity, black nightshade", "setting": "black nightshade [1]", "value": 100}]}
{"smiles": "Cn1nnnc1NC(=O)c1ccc(C(F)(F)F)nc1OCc1nnnn1C(F)F", "note": "[Compound No. 1-26, 2-((1-(difluoromethyl)-1H-tetrazol-5-yl)methoxy)-N-(1-methyl-1H-tetrazol-5-yl)-6-(trifluoromethyl)nicotinamide]", "values": [{"measurement": "Foliar treatment herbicidal activity, black nightshade", "setting": "black nightshade [1]", "value": 100}, {"measurement": "Soil treatment herbicidal activity, black nightshade", "setting": "black nightshade [2]", "value": 100}]}
{"smiles": "COc1nc(COCc2nc(C(F)(F)F)ccc2C(=O)Nc2nnnn2C)nn1C", "note": "[Compound No. 2-129, 2-(((5-methoxy-1-methyl-1H-1,2,4-triazol-3-yl)methoxy)methyl)-N-(1-methyl-1H-tetrazol-5-yl)-6-(trifluoromethyl)nicotinamide]", "values": [{"measurement": "Foliar treatment herbicidal activity, black nightshade", "setting": "black nightshade [1]", "value": 100}, {"measurement": "Soil treatment herbicidal activity, black nightshade", "setting": "black nightshade [2]", "value": 100}]}
{"smiles": "CCOC(=O)OC(C)N(C(=O)c1ccc(C(F)(F)F)nc1COCc1nnn(C)n1)c1nnnn1C", "note": "(stereo not drawn) [Compound No. 4-8, ethyl(1-(N-(1-methyl-1H-tetrazol-5-yl)-2-(((2-methyl-2H-tetrazol-5-yl)methoxy)methyl)-6-(trifluoromethyl)nicotinamido)ethyl)carbonate]", "values": [{"measurement": "Foliar treatment herbicidal activity, black nightshade", "setting": "black nightshade [1]", "value": 100}, {"measurement": "Soil treatment herbicidal activity, black nightshade", "setting": "black nightshade [2]", "value": 100}]}
{"smiles": "Cn1nnc(CSCc2nc(C(F)F)ccc2C(=O)Nc2nnnn2C)n1", "note": "[Compound No. 2-108, 6-(difluoromethyl)-N-(1-methyl-1H-tetrazol-5-yl)-2-((((2-methyl-2H-tetrazol-5-yl)methyl)thio)methyl)nicotinamide]", "values": [{"measurement": "Foliar treatment herbicidal activity, black nightshade", "setting": "black nightshade [1]", "value": 100}, {"measurement": "pest or weed control at 50 g/ha", "setting": "black nightshade [2]", "value": 30, "unit": "%"}]}
{"smiles": "Cn1nnc(CSCc2nc(C(F)(F)F)ccc2C(=O)Nc2nnnn2C)n1", "note": "[Compound No. 2-102, N-(1-methyl-1H-tetrazol-5-yl)-2-((((2-methyl-2H-tetrazol-5-yl)methyl)thio)methyl)-6-(trifluoromethyl)nicotinamide]", "values": [{"measurement": "Foliar treatment herbicidal activity, black nightshade", "setting": "black nightshade [1]", "value": 100}, {"measurement": "Soil treatment herbicidal activity, black nightshade", "setting": "black nightshade [2]", "value": 100}]}
{"smiles": "Cn1nc(COCc2nc(C(F)(F)F)ccc2C(=O)Nc2nnnn2C)nc1Cl", "note": "[Compound No. 2-135, 2-(((5-chloro-1-methyl-1H-1,2,4-triazol-3-yl)methoxy)methyl)-N-(1-methyl-1H-tetrazol-5-yl)-6-(trifluoromethyl)nicotinamide]", "values": [{"measurement": "pest or weed control at 50 g/ha", "setting": "black nightshade [1]", "value": 98, "unit": "%"}, {"measurement": "pest or weed control at 50 g/ha", "setting": "black nightshade [2]", "value": 60, "unit": "%"}]}
{"smiles": "Cn1nc(COCc2nc(C(F)(F)F)ccc2C(=O)Nc2nnnn2C)nc1C#N", "note": "[Compound No. 2-134, 2-(((5-cyano-1-methyl-1H-1,2,4-triazol-3-yl)methoxy)methyl)-N-(1-methyl-1H-tetrazol-5-yl)-6-(trifluoromethyl)nicotinamide]", "values": [{"measurement": "Foliar treatment herbicidal activity, black nightshade", "setting": "black nightshade [1]", "value": 100}]}
{"smiles": "Cn1nnc(COCc2nc(C(F)(F)Cl)ccc2C(=O)Nc2nnnn2C)n1", "note": "[Compound No. 2-78, 6-(chlorodifluoromethyl)-N-(1-methyl-1H-tetrazol-5-yl)-2-(((2-methyl-2H-tetrazol-5-yl)methoxy)methyl)nicotinamide]", "values": [{"measurement": "pest or weed control at 50 g/ha", "setting": "black nightshade [1]", "value": 95, "unit": "%"}]}
{"smiles": "Cn1nc(COCc2nc(C(F)(F)F)ccc2C(=O)Nc2nnnn2C)nc1Br", "note": "[Compound No. 2-136, 2-(((5-bromo-1-methyl-1H-1,2,4-triazol-3-yl)methoxy)methyl)-N-(1-methyl-1H-tetrazol-5-yl)-6-(trifluoromethyl)nicotinamide]", "values": [{"measurement": "pest or weed control at 50 g/ha", "setting": "black nightshade [1]", "value": 95, "unit": "%"}]}
{"smiles": "CCOC(=O)OC(C)n1nnn(C)c1=NC(=O)c1ccc(C(F)(F)F)nc1CSCc1nnn(C)n1", "note": "(stereo not drawn) [Compound No. 4-10, ethyl (1-(4-methyl-5-((2-((((2-methyl-2H-tetrazol-5-yl)methyl)thio)methyl)-6-(trifluoromethyl)nicotinoyl)imino)-4,5-dihydro-1H-tetrazol-1-yl)ethyl)carbonate]", "values": [{"measurement": "Foliar treatment herbicidal activity, black nightshade", "setting": "black nightshade [1]", "value": 100}, {"measurement": "Soil treatment herbicidal activity, black nightshade", "setting": "black nightshade [2]", "value": 100}]}
{"smiles": "Cc1nc(COCc2nc(C(F)(F)F)ccc2C(=O)Nc2nnnn2C)nn1C", "note": "[Compound No. 2-116, 2-(((1,5-dimethyl-1H-1,2,4-triazol-3-yl)methoxy)methyl)-N-(1-methyl-1H-tetrazol-5-yl)-6-(trifluoromethyl)nicotinamide]", "values": [{"measurement": "Foliar treatment herbicidal activity, black nightshade", "setting": "black nightshade [1]", "value": 100}]}
{"smiles": "Cn1ncnc1COCc1nc(C(F)(F)F)ccc1C(=O)Nc1nnnn1C", "note": "[Compound No. 1-102, 2-(((1-methyl-1H-1,2,4-triazol-5-yl)methoxy)methyl)-N-(1-methyl-1H-tetrazol-5-yl)-6-(trifluoromethyl)nicotinamide]", "values": [{"measurement": "pest or weed control at 50 g/ha", "setting": "black nightshade [1]", "value": 95, "unit": "%"}]}
{"smiles": "Cc1nc(COCc2nc(C(F)(F)F)ccc2C(=S)Nc2nnnn2C)nn1C", "note": "[Compound No. 2-117, 2-(((1,5-dimethyl-1H-1,2,4-triazol-3-yl)methoxy)methyl)-N-(1-methyl-1H-tetrazol-5-yl)-6-(trifluoromethyl)pyridin-3-carbothioamide]", "values": [{"measurement": "Foliar treatment herbicidal activity, black nightshade", "setting": "black nightshade [1]", "value": 100}]}
{"smiles": "Cn1nnc(COCc2nc(C(F)(F)F)ccc2C(=O)N(c2nnnn2C)S(C)(=O)=O)n1", "note": "[Compound No. 2-69, N-(1-methyl-1H-tetrazol-5-yl)-2-(((2-methyl-2H-tetrazol-5-yl)methoxy)methyl)-N-(methylsulfonyl)-6-(trifluoromethyl)nicotinamide]", "values": [{"measurement": "pest or weed control at 50 g/ha", "setting": "black nightshade [1]", "value": 95, "unit": "%"}]}
{"smiles": "Cn1nnc(CSCc2nc(C(F)(F)F)ccc2C(=O)N(c2nnnn2C)S(C)(=O)=O)n1", "note": "[Compound No. 2-110, N-(1-methyl-1H-tetrazol-5-yl)-2-((((2-methyl-2H-tetrazol-5-yl)methyl)thio)methyl)-N-(methylsulfonyl)-6-(trifluoromethyl)nicotinamide]", "values": [{"measurement": "Foliar treatment herbicidal activity, black nightshade", "setting": "black nightshade [1]", "value": 100}]}
{"smiles": "Cn1nnc(COCc2nc(C(F)(F)C(F)(F)F)ccc2C(=O)Nc2nnnn2C)n1", "note": "[Compound No. 2-81, N-(1-methyl-1H-tetrazol-5-yl)-2-(((2-methyl-2H-tetrazol-5-yl)methoxy)methyl)-6-(perfluoroethyl)nicotinamide]", "values": [{"measurement": "pest or weed control at 50 g/ha", "setting": "black nightshade [1]", "value": 95, "unit": "%"}]}
